One experiment deals with prostate PC3. Kind of experiment: Sulforhodamine B (SRB) assay, prostate PC3. The experiment is classed as cell-based. As to conditions: Homo sapiens, Table 1, 48 h. As to the method:
(§1) Human cancer cells were purchased from the American Type Culture Collection (Manassas, Va., USA). These cell lines were cultured in RPMI 1640 medium or DMEM supplemented with 10% FBS (v/v) and pencillin (100 U/mL)/streptomycin (100 ug/mL)/amphotericin B (0.25 ug/mL). Cultures were maintained at 37° C. in a humidified atmosphere of 5% CO2/95% air.
(§2) Cells were seeded in 96-well plates in medium with 5% fetal bovine serum. After 24 h, cells were fixed with 10% trichloroacetic acid to represent cell population at the time of drug addition (T0). After additional incubation of DMSO or drugs for 48 h, cells were fixed with 10% trichloroacetic acid and sulforhodamine B at 0.4% (w/v) in 1% acetic acid was added to stain cells. Unbound sulforhodamine B was washed out by 1% acetic acid and sulforhodamine B-bound cells were solubilized with 10 mmol/L Trizma base. The absorbance was read at a wavelength of 515 nm. Using the following absorbance measurements, such as time zero (T0), control growth (C), and cell growth in the presence of the drug (Tx), the percentage growth was calculated at each of the compound concentrations levels. Percentage growth inhibition was calculated as […].
(In general: The SRB assay estimates cell density from bound dye.)

The next experiment has as its system lung A549. Kind of experiment: Sulforhodamine B (SRB) assay, lung A549. The experiment is classed as cell-based, human. The procedure:
Human cancer cells were purchased from the American Type Culture Collection (Manassas, Va., USA).
Cells were seeded in 96-well plates in medium with 5% fetal bovine serum. […] Unbound sulforhodamine B was washed out by 1% acetic acid and sulforhodamine B-bound cells were solubilized with 10 mmol/L Trizma base. […] Using the following absorbance measurements, such as time zero (T0), control growth (C), and cell growth in the presence of the drug (Tx), the percentage growth was calculated at each of the compound concentrations levels. Percentage growth inhibition was calculated as […].

The next experiment deals with colorectal HCT116. The experiment can be described thus: Sulforhodamine B (SRB) assay, colorectal HCT116. The experiment is classed as cell-based. As to conditions: Homo sapiens, HCT-116, SRB. The procedure:
as §1, §2

The mark [1] stands for this setting: Homo sapiens, A549, Table 1, SRB, 48 h, read-out: GI50 Lung A549.
Setting [2] is: Homo sapiens, A549, 48 h, read-out: GI50 Lung A549.
[3] abbreviates: Table 1, 48 h, read-out: GI50 Colorectal HCT116.

Where two headings read alike, the source gives them in different places.

For the molecule `CC(C)c1cc(C(=O)N(C)c2ccc3c(cnn3C)c2)c(O)cc1O` [Compound 25b, 2,4-dihydroxy-5-isopropyl-N-methyl-N-(1-methyl-1H-indazol-5-yl)benzamide], the values for the GI50 in the experiment with prostate PC3 and in the experiment with lung A549 (setting [1]) were 100 ± 10 nM and 110 ± 10 nM, respectively. In the case of `CCN(C(=O)c1cc(C(C)C)c(O)cc1O)c1ccc2ncccc2c1` [Compound 30c, N-ethyl-2,4-dihydroxy-5-isopropyl-N-(quinolin-6-yl)benzamide], the GI50 (in general, the concentration that inhibits growth by half) in the experiment with prostate PC3 turned out to be 460 ± 130 nM; in the experiment on lung A549 (setting [1]) it was 510 ± 90 nM. In the case of `CC(C)c1cc(C(=O)N(C)c2cccc3ccn(C)c23)c(O)cc1O` [Compound 22b, 2,4-dihydroxy-5-isopropyl-N-methyl-N-(1-methyl-1H-indol-7-yl)benzamide], the concentration for 50% growth inhibition (GI50) in the experiment with lung A549 (setting [2]) is more than 10000 nM. On the same count and under the same terms, the result for `CC(C)c1cc(C(=O)N(C)c2ccc3ccn(C)c3c2)c(O)cc1O` [Compound 21c, 2,4-dihydroxy-5-isopropyl-N-methyl-N-(1-methyl-1H-indol-6-yl)benzamide] reads 100 ± 20 nM. With `CC(C)c1cc(C(=O)N(C)c2ccc3ncccc3c2)c(O)cc1O` [Compound 30b, 2,4-dihydroxy-5-isopropyl-N-methyl-N-(quinolin-6-yl)benzamide], the GI50 in the experiment on prostate PC3 and in the experiment on lung A549 (setting [1]) was more than 10000 nM each time.

Take `CC(C)c1cc(C(=O)N(c2cccc3ccn(C)c23)C(C)C)c(O)cc1O` [Compound 22e, 2,4-dihydroxy-N,5-diisopropyl-N-(1-methyl-1H-indol-7-yl)benzamide]: the GI50 in the experiment with lung A549 (setting [2]) is more than 10000 nM.

On to `CCN(C(=O)c1cc(C(C)C)c(O)cc1O)c1cnc2ccccc2c1` [Compound 28c, N-ethyl-2,4-dihydroxy-5-isopropyl-N-(quinolin-3-yl)benzamide], for which the GI50 in the experiment on lung A549 (setting [1]) is 280 ± 50 nM.

With `CCN(C(=O)c1cc(C(C)C)c(O)cc1O)c1cccnc1OCc1ccccc1` [Compound 34b, N-(2-(benzyloxy)pyridin-3-yl)-N-ethyl-2,4-dihydroxy-5-isopropylbenzamide], the GI50 in the experiment with lung A549 (setting [1]) stood at 210 ± 10 nM.

For `CCCN(C(=O)c1cc(C(C)C)c(O)cc1O)c1cnc2c(cnn2C)c1` [Compound 26e, 2,4-dihydroxy-5-isopropyl-N-(1-methyl-1H-pyrazolo[3,4-b]pyridin-5-yl)-N-propylbenzamide], the GI50 in the experiment on colorectal HCT116 (setting [3]) turned out to be 8290 ± 290 nM; with lung A549 (setting [1]), 4210 ± 220 nM. In the case of `CCCN(C(=O)c1cc(C(C)C)c(O)cc1O)c1cccc2ccn(C)c12` [Compound 22d, 2,4-dihydroxy-5-isopropyl-N-(1-methyl-1H-indol-7-yl)-N-propylbenzamide], the GI50 in the experiment with lung A549 (setting [2]) is more than 10000 nM.

As to `CCN(C(=O)c1cc(C(C)C)c(O)cc1O)c1cccnc1C` [Compound 34a, N-ethyl-2,4-dihydroxy-5-isopropyl-N-(2-methylpyridin-3-yl)benzamide], the GI50 in the experiment on lung A549 (Table 1, SRB, 48 h, read-out: GI50 Lung A549) is more than 10000 nM. As to `CC(C)c1cc(C(=O)N(C)c2cnc3c(ccn3C)c2)c(O)cc1O` [Compound 24c, 2,4-dihydroxy-5-isopropyl-N-methyl-N-(1-methyl-1H-pyrrolo[2,3-b]pyridin-5-yl)benzamide], the values for the concentration for 50% growth inhibition (GI50) in the experiment on colorectal HCT116 (setting [3]) and with lung A549 (setting [1]) were 710 ± 80 nM and 270 ± 30 nM, respectively. On the same counts, the results for `CC(C)c1cc(C(=O)N(c2cnc3c(cnn3C)c2)C(C)C)c(O)cc1O` [Compound 26f, 2,4-dihydroxy-N, 5-diisopropyl-N-(1-methyl-1H-pyrazolo[3,4-b]pyridin-5-yl)benzamide] are 6860 ± 480 nM and 3640 ± 50 nM.

As for `CC(C)c1cc(C(=O)N(C)c2cnc3c(cnn3C)c2)c(O)cc1O` [Compound 26c, 2,4-dihydroxy-5-isopropyl-N-methyl-N-(1-methyl-1H-pyrazolo[3,4-b]pyridin-5-yl)benzamide], the GI50 was found to be 1150 ± 220 nM in the experiment on colorectal HCT116 (setting [3]) and 700 ± 40 nM in the experiment on lung A549 (setting [1]).

In the case of `CCN(C(=O)c1cc(C(C)C)c(O)cc1O)c1ccc2ccn(C)c2c1` [Compound 21d, N-ethyl-2,4-dihydroxy-5-isopropyl-N-(1-methyl-1H-indol-6-yl)benzamide], the GI50 in the experiment on lung A549 (setting [2]) is 90 ± 10 nM. On the same count and under the same terms, the result for `CC(C)c1cc(C(=O)Nc2ccc3ccn(C)c3c2)c(O)cc1O` [Compound 21b, 2,4-dihydroxy-5-isopropyl-N-(1-methyl-1H-indol-6-yl)benzamide] reads more than 10000 nM.

`C=CCNC1=C2C[C@@H](C)C[C@H](OC)[C@H](O)[C@@H](C)/C=C(\C)[C@H](OC(N)=O)[C@@H](OC)/C=C\C=C(/C)C(=O)NC(=CC1=O)C2=O` [Compound 17-AAG, 17-allylamino-17-desmethoxygeldanamycin, reference compound]: the GI50 is 340 ± 60 nM with colorectal HCT116 (Table 2, read-out: HCT116 GI50) and 80 ± 10 nM with lung A549 (Homo sapiens, A549, Table 2, SRB, read-out: A549 GI50). For the molecule `CCN(C(=O)c1cc(C(C)C)c(O)cc1O)c1cccc2ccn(C)c12` [Compound 22c, N-ethyl-2,4-dihydroxy-5-isopropyl-N-(1-methyl-1H-indol-7-yl)benzamide], the GI50 in the experiment with lung A549 (setting [2]) is more than 10000 nM. Regarding `CCCN(C(=O)c1cc(C(C)C)c(O)cc1O)c1cnc2c(ccn2C)c1` [Compound 24e, 2,4-dihydroxy-5-isopropyl-N-(1-methyl-1H-pyrrolo[2,3-b]pyridin-5-yl)-N-propylbenzamide], the GI50 in the experiment with colorectal HCT116 (setting [3]) is 3760 ± 230 nM; in the experiment with lung A549 (setting [1]), 2100 ± 170 nM. `CCN(C(=O)c1cc(C(C)C)c(O)cc1O)c1cnc2c(cnn2C)c1` [Compound 26d, N-ethyl-2,4-dihydroxy-5-isopropyl-N-(1-methyl-1H-pyrazolo[3,4-b]pyridin-5-yl)benzamide]: the GI50 came to 710 ± 60 nM with colorectal HCT116 (setting [3]) and 380 ± 20 nM in the experiment with lung A549 (setting [1]).

As for `CC(C)c1cc(C(=O)Nc2cnc3c(cnn3C)c2)c(O)cc1O` [Compound 26b, 2,4-dihydroxy-5-isopropyl-N-(1-methyl-1H-pyrazolo[3,4-b]pyridin-5-yl)benzamide], the concentration for 50% growth inhibition (GI50) in the experiment on colorectal HCT116 (setting [3]) and in the experiment with lung A549 (setting [1]) was more than 10000 nM throughout. With `CC(C)c1cc(C(=O)N(c2ccc3ccn(C)c3c2)C(C)C)c(O)cc1O` [Compound 21f, 2,4-dihydroxy-N,5-diisopropyl-N-(1-methyl-1H-indol-6-yl)benzamide], the GI50 with lung A549 (setting [2]) amounted to 840 ± 40 nM. Take `CC(C)c1cc(C(=O)N(c2cnc3c(ccn3C)c2)C(C)C)c(O)cc1O` [Compound 24f, 2,4-dihydroxy-N, 5-diisopropyl-N-(1-methyl-1H-pyrrolo[2,3-b]pyridin-5-yl)benzamide]: the results for the GI50 with colorectal HCT116 (setting [3]) and in the experiment on lung A549 (setting [1]) were 3140 ± 870 nM and 2060 ± 120 nM, respectively. `CCCN(C(=O)c1cc(C(C)C)c(O)cc1O)c1ccc2ccn(C)c2c1` [Compound 21e, 2,4-dihydroxy-5-isopropyl-N-(1-methyl-1H-indol-6-yl)-N-propylbenzamide]: the GI50 with lung A549 (setting [2]) was 1620 ± 120 nM. As to `CC(C)c1cc(C(=O)Nc2cccc3ccn(C)c23)c(O)cc1O` [Compound 22a, 2,4-dihydroxy-5-isopropyl-N-(1-methyl-1H-indol-7-yl)benzamide], in the experiment on lung A549 (setting [2]), the GI50 was more than 10000 nM. Same read-out and setting: the result for `CC(C)c1cc(C(=O)Nc2ccc3cc[nH]c3c2)c(O)cc1O` [Compound 21a, 2,4-dihydroxy-N-(1H-indol-6-yl)-5-isopropylbenzamide] reads 300 ± 30 nM. On to `CCN(C(=O)c1cc(C(C)C)c(O)cc1O)c1cnc2c(ccn2C)c1` [Compound 24d, N-ethyl-2,4-dihydroxy-5-isopropyl-N-(1-methyl-1H-pyrrolo[2,3-b]pyridin-5-yl)benzamide], for which the GI50 in the experiment on colorectal HCT116 (setting [3]) is 440 ± 190 nM; in the experiment with lung A549 (setting [1]), 230 ± 30 nM.

For the molecule `CC(C)c1cc(C(=O)N(C)c2ccc3c(c2)CCN3)c(O)cc1O` [Compound 23b, 2,4-dihydroxy-N-(indolin-5-yl)-5-isopropyl-N-methylbenzamide], the figures for the concentration for 50% growth inhibition (GI50) in the experiment on colorectal HCT116 (setting [3]) and in the experiment with lung A549 (setting [1]) were 5530 ± 380 nM and 2820 ± 30 nM, respectively.

These data come from patent US11479528B2, “Heat shock protein 90 inhibitors” (TAIPEI MEDICAL UNIVERSITY, priority 2017, dated 2022).
